Results on one molecule are retold here after article PMC6450699 (Archives of biochemistry and biophysics, 2018).

The data set has as its target human cytochrome P450 3A4 (CYP3A4) (Homo sapiens, UniProt P08684, C58T/C64A/C98S/F215C/C239S/C468G). Nature of the data set: purified enzyme with CPR: fluorescent HFC production and NADPH consumption. It counts as biochemical.

Sequence of human cytochrome P450 3A4 (CYP3A4) (P08684 13-503 C58T/C64A/C98S/F215C/C239S/C468G): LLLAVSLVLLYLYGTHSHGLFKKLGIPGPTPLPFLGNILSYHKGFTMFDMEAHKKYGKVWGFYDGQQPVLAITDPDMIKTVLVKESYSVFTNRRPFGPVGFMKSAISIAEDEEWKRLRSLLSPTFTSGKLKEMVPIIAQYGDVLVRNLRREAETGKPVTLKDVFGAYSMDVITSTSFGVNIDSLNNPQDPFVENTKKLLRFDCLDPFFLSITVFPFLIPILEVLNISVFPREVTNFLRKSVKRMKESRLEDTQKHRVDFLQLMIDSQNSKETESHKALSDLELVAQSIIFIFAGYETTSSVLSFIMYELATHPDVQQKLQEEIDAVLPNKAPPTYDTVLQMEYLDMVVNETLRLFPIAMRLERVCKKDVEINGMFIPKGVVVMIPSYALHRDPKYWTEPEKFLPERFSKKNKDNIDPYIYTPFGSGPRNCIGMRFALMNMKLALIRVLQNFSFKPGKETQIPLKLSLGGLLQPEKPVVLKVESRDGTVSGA

Regarding `O=c1cc(C(F)(F)F)c2ccc(OCc3ccccc3)cc2o1` [BFC, 7-benzyloxy-4-trifluoromethylcoumarin], the “HFC produced^b” value is 0.0044 ± 0.0008 μmol/min/μmol enzyme.
